Assay results taken from patent US7960383B2, “Pyridazin-3(2H)-one derivatives and their use as PDE4 inhibitors” (Laboratorios Almirall SA, priority 2004, dated 2011).

Biological target: PDE4 (Homo sapiens, UniProt Q07343)
Experiment: PDE4 Assay Procedure ([3H]-cAMP SPA)
Assay type: biochemical
Conditions: read-out: HPDE4B or IC50 PDE4
Description: Compounds to be tested were resuspended in DMSO at a stock concentration of 1 mM. The compounds were tested at different concentrations varying from 10 pM to 10 μM to calculate an IC50. These dilutions were done in 96-well plates. In some cases, plates containing diluted compounds were frozen before being assayed. In these cases, the plates were thawed at room temperature and stirred for 15 minutes.
Ten microliters of the diluted compounds were poured into a “low binding” assay plate. Eighty microliters of reaction mixture containing 50 mM Tris pH 7.5, 8.3 mM MgCl2, 1.7 mM EGTA, and 15 nM [3H]-cAMP were added to each well. The reaction was initiated by adding ten microliters of a solution containing PDE4. The plate was then incubated under stirring for 1 hour at room temperature. After incubation the reaction was stopped with 50 microlitres of SPA beads, and the reaction was allowed to incubate for another 20 minutes at room temperature before measuring radioactivity using standard instrumentation.
The reaction mixture was prepared by adding 90 ml of H2O to 10 ml of 10× assay buffer (500 mM Tris pH 7.5, 83 mM MgCl2, 17 mM EGTA), and 40 microlitres 1 μCi/μL [3H]-cAMP. SPA beads solution was prepared by adding 500 mg to […] H2O for a final concentration of 20 mg/ml beads and 18 mM zinc sulphate.

PDE4, sequence (Q07343 whole entry): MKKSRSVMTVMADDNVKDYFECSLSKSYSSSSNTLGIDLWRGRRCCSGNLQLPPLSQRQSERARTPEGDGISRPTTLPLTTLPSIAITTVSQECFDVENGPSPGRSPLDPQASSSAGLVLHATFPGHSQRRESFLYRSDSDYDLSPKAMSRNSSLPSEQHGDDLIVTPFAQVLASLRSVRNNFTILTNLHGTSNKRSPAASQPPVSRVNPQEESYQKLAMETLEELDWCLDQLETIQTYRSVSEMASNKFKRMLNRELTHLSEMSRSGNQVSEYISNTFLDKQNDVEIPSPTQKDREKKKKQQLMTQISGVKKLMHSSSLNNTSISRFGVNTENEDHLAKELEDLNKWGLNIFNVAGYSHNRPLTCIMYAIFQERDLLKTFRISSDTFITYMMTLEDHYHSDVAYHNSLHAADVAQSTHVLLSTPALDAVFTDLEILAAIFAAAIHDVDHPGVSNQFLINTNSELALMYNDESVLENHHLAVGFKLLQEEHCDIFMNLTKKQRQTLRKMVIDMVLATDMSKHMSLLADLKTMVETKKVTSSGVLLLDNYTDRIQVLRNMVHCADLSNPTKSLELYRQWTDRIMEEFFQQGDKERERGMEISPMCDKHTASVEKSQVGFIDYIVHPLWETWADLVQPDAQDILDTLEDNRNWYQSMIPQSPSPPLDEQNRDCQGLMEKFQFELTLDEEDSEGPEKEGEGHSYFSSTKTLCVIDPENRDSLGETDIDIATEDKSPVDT

| IC50 | SMILES |
| --- | --- |
| 1.5 nM | CCn1nc(C(=O)OC(C)c2ccccc2)c(C(C)=O)c(Nc2cncc3ccccc23)c1=O (stereo not drawn) [Example 39, 1-Phenylethyl 4-acetyl-1-ethyl-5-(isoquinolin-4-ylamino)-6-oxo-1,6-dihydropyridazine-3-carboxylate] |
| 16 nM | CCn1nc(C(=O)OC(C)C)c(C(C)=O)c(Nc2cncc3ccccc23)c1=O [Example 27, Isopropyl 4-acetyl-1-ethyl-5-(isoquinolin-4-ylamino)-6-oxo-1,6-dihydropyridazine-3-carboxylate] |
| 0.73 nM | CCn1nc(C(=O)OCCOc2ccccc2)cc(Nc2cncc3ccccc23)c1=O [Example 49, 2-Phenoxyethyl 1-ethyl-5-(isoquinolin-4-ylamino)-6-oxo-1,6-dihydropyridazine-3-carboxylate] |
| 0.48 nM | CCn1nc(C(=O)OCc2ccc(Br)cc2)cc(Nc2cncc3ccccc23)c1=O [Example 51, 4-Bromobenzyl 1-ethyl-5-(isoquinolin-4-ylamino)-6-oxo-1,6-dihydropyridazine-3-carboxylate] |
| 0.49 nM | CCn1nc(C(=O)OCc2cccc(Cl)c2)c(C(C)=O)c(Nc2cncc3ccccc23)c1=O [Example 69, 3-Chlorobenzyl 4-acetyl-1-ethyl-5-(isoquinolin-4-ylamino)-6-oxo-1,6-dihydropyridazine-3-carboxylate] |
| 1.6 nM | CCn1nc(C(=O)OCc2cccc(OC)c2)cc(Nc2cncc3ccccc23)c1=O [Example 11, 3-Methoxybenzyl 1-ethyl-5-(isoquinolin-4-ylamino)-6-oxo-1,6-dihydropyridazine-3-carboxylate] |
| 5 nM | CCCCCCCCOC(=O)c1nn(CC)c(=O)c(Nc2cncc3ccccc23)c1C(C)=O [Example 71, Octyl 4-acetyl-1-ethyl-5-(isoquinolin-4-ylamino)-6-oxo-1,6-dihydropyridazine-3-carboxylate] |
| 69 nM | CCn1nc(C(=O)OC(C)c2ccccc2)c(C(C)=O)c(Nc2cnccc2C)c1=O (stereo not drawn) [Example 41, 1-Phenylethyl 4-acetyl-1-ethyl-5-[(4-methylpyridin-3-yl)amino]-6-oxo-1,6-dihydropyridazine-3-carboxylate] |
| 2.9 nM | CCn1nc(C(=O)OCc2cccc(Cl)c2)cc(Nc2cncc3ccccc23)c1=O [Example 13, 3-Chlorobenzyl 1-ethyl-5-(isoquinolin-4-ylamino)-6-oxo-1,6-dihydropyridazine-3-carboxylate] |
| 52 nM | CCn1nc(C(=O)OCc2ccccc2)cc(Nc2cnccc2C)c1=O [Example 1, Benzyl 1-ethyl-5-(4-methylpyridin-3-ylamino)-6-oxo-1,6-dihydropyridazine-3-carboxylate] |
| 0.36 nM | CCn1nc(C(=O)OCOC(=O)C(C)(C)CC)cc(Nc2cncc3ccccc23)c1=O [Example 66, 2,2-Dimethylbutyryloxymethyl 1-ethyl-5-(isoquinolin-4-ylamino)-6-oxo-1,6-dihydropyridazine-3-carboxylate] |
| 1.9 nM | CCn1nc(C(=O)OCc2ccccc2)c(C(C)=O)c(Nc2cncc3ccccc23)c1=O [Example 33, Benzyl 4-acetyl-1-ethyl-5-(isoquinolin-4-ylamino)-6-oxo-1,6-dihydropyridazine-3-carboxylate] |
| 13 nM | CCn1nc(C(=O)OC(C)Cc2ccccc2)c(C(C)=O)c(Nc2cncc3ccccc23)c1=O (stereo not drawn) [Example 38, 1-Methyl-2-phenylethyl 4-acetyl-1-ethyl-5-(isoquinolin-4-ylamino)-6-oxo-1,6-dihydropyridazine-3-carboxylate] |
| 2.4 nM | CCn1nc(C(=O)OC(C)c2ccccc2)cc(Nc2cncc3ccccc23)c1=O (stereo not drawn) [Example 14, 1-Phenylethyl 1-ethyl-5-(isoquinolin-4-ylamino)-6-oxo-1,6-dihydropyridazine-3-carboxylate] |
| 44 nM | CCn1nc(C(=O)OC2CCC2)c(C(C)=O)c(Nc2cncc3ccccc23)c1=O [Example 36, Cyclobutyl 4-acetyl-1-ethyl-5-(isoquinolin-4-ylamino)-6-oxo-1,6-dihydropyridazine-3-carboxylate] |
| 5.1 nM | CCn1nc(C(=O)OCc2ccccc2)c(C(C)=O)c(Nc2cccnc2)c1=O [Example 26, Benzyl 4-acetyl-1-ethyl-6-oxo-5-(pyridin-3-ylamino)-1,6-dihydropyridazine-3-carboxylate] |
| 19 nM | CCn1nc(C(=O)OCc2ccsc2)cc(Nc2cnccc2C)c1=O [Example 10, Thiophen-3-ylmethyl 1-ethyl-5-(4-methylpyridin-3-ylamino)-6-oxo-1,6-dihydropyridazine-3-carboxylate] |
| 14 nM | CCOC(=O)c1nn(CC)c(=O)c(Nc2cncc3ccccc23)c1C(C)=O [Example 23, Ethyl 4-acetyl-1-ethyl-5-(isoquinolin-4-ylamino)-6-oxo-1,6-dihydropyridazine-3-carboxylate] |
